Assay results published in US20060293307A1, “Oxazolidinone derivatives as antimicrobials” (priority 2002, published 2006).
Converted amounts (≈) assume the structure as drawn. Read-outs that look alike come from different tables or passages of the source.

Tests used:
[1] = system: S. aureus ATCC 25923; test: MIC, agar incorporation method; type: cell-based, Staphylococcus aureus
[2] = system: S. aureus SG 511; test: MIC, agar incorporation method; type: cell-based, Staphylococcus aureus
[3] = system: S. aureus (MRSA) 21299; test: MIC, agar incorporation method; type: cell-based, Staphylococcus aureus
[4] = system: S. aureus (MRSA) ST450; test: MIC, agar incorporation method; type: cell-based, Staphylococcus aureus
[5] = system: S. aureus (MRSA 33) Cipro R; test: MIC, agar incorporation method; type: cell-based, Staphylococcus aureus
[6] = system: S. aureus (Smith 49951); test: MIC, agar incorporation method; type: cell-based, Staphylococcus aureus
[7] = system: S. epidermidis 358; test: MIC, agar incorporation method; type: cell-based, Staphylococcus epidermidis
[8] = system: S. haemo ATCC 29970; test: MIC, agar incorporation method; type: cell-based
[9] = system: E. faecalis 21777; test: MIC, agar incorporation method; type: cell-based
[10] = system: E. faecalis SP 346 (VRE); test: MIC, agar incorporation method; type: cell-based
[11] = system: E. faecium 398(VRE); test: MIC, agar incorporation method; type: cell-based, Enterococcus faecium
[12] = system: K. oxytoca 49131; test: MIC, agar incorporation method; type: cell-based
[13] = system: Acinetobacter 9956; test: MIC, agar incorporation method; type: cell-based
[14] = system: S. pneumoniae AB-3; test: MIC, agar incorporation method; type: cell-based, Streptococcus pneumoniae
[15] = system: S. pneumoniae CS1221; test: MIC, agar incorporation method; type: cell-based, Streptococcus pneumoniae
[16] = system: S. pneumoniae AB 31; test: MIC, agar incorporation method; type: cell-based, Streptococcus pneumoniae
[17] = system: S. pneumoniae AB 14; test: MIC, agar incorporation method; type: cell-based, Streptococcus pneumoniae
[18] = system: S. pneumoniae AB 17; test: MIC, agar incorporation method; type: cell-based, Streptococcus pneumoniae
[19] = system: S. pneumoniae AB 23; test: MIC, agar incorporation method; type: cell-based, Streptococcus pneumoniae
[20] = system: S. pneumoniae CS 1687; test: MIC, agar incorporation method; type: cell-based, Streptococcus pneumoniae
[21] = system: S. pneumoniae ATCC 49619; test: MIC, agar incorporation method; type: cell-based, Streptococcus pneumoniae
[22] = system: S. pyogenes 19615; test: MIC, agar incorporation method; type: cell-based, Streptococcus pyogenes
[23] = system: S. pyogenes 25147; test: MIC, agar incorporation method; type: cell-based, Streptococcus pyogenes
[24] = system: S. pneumoniae 1256; test: MIC, agar incorporation method; type: cell-based, Streptococcus pneumoniae
[25] = system: H. influenzae ATCC 49247; test: MIC against Haemophilus strains; type: cell-based
[26] = system: H. influenzae βIac; test: MIC against Haemophilus strains; type: cell-based

Q: What does the source list for `O=C(NC[C@H]1CN(c2ccc(N3CCN(c4ccc([N+](=O)[O-])s4)CC3)c(F)c2)C(=O)O1)C(F)F` [Compound No. 8, (S)—N-[[3-[3-Fluoro-4-[4-(5-nitro-2-thienyl)-1-piperazinyl]phenyl]-2-oxo-5-oxazolidinyl]methyl]difluoroacetamide]?
A: MIC ([1]; Staphylococcus aureus, ATCC25923): 2 µg/mL (≈ 4 µM); MIC ([2]; Staphylococcus aureus, SG511): 0.25 µg/mL (≈ 0.501 µM); MIC ([3]; Staphylococcus aureus, MRSA): 2 µg/mL (≈ 4 µM); MIC ([4]; Staphylococcus aureus, MRSA): 2 µg/mL (≈ 4 µM); MIC ([5]; Staphylococcus aureus, MRSA): 2 µg/mL (≈ 4 µM); MIC ([6]; Staphylococcus aureus): 1 µg/mL (≈ 2 µM); MIC ([7]; Staphylococcus epidermidis, 358): 0.25 µg/mL (≈ 0.501 µM); MIC [8]: 0.25 µg/mL (≈ 0.501 µM); MIC ([9]; Enterococcus faecalis, 21777): 2 µg/mL (≈ 4 µM); MIC ([10]; Enterococcus faecalis, VRE): 0.25 µg/mL (≈ 0.501 µM); MIC ([11]; Enterococcus faecium, VRE): 0.25 µg/mL (≈ 0.501 µM); MIC ([12]; Klebsiella oxytoca, 49131): > 8 µg/mL; MIC ([13]; Acinetobacter, 9956): 8 µg/mL (≈ 16 µM); MIC ([14]; Streptococcus pneumoniae, AB3): 0.125 µg/mL (≈ 0.25 µM); MIC ([15]; Streptococcus pneumoniae, CS1221): 0.125 µg/mL (≈ 0.25 µM); MIC ([16]; Streptococcus pneumoniae, AB31): 0.25 µg/mL (≈ 0.501 µM); MIC ([17]; Streptococcus pneumoniae, AB14): 0.25 µg/mL (≈ 0.501 µM); MIC ([18]; Streptococcus pneumoniae, AB17): 0.25 µg/mL (≈ 0.501 µM); MIC ([19]; Streptococcus pneumoniae, AB23): 0.25 µg/mL (≈ 0.501 µM); MIC ([20]; Streptococcus pneumoniae, CS1687): 0.25 µg/mL (≈ 0.501 µM); MIC ([21]; Streptococcus pneumoniae, ATCC49619): 0.25 µg/mL (≈ 0.501 µM); MIC ([22]; Streptococcus pyogenes, 19615): 0.25 µg/mL (≈ 0.501 µM); MIC ([23]; Streptococcus pyogenes, 25147): 0.25 µg/mL (≈ 0.501 µM); MIC ([24]; Streptococcus pneumoniae, 1256): 0.125 µg/mL (≈ 0.25 µM); MIC ([25]; Haemophilus influenzae, ATCC49247): > 16 µg/mL; MIC ([26]; Haemophilus influenzae): > 16 µg/mL

Q: What does the source list for `CC(=O)NC[C@H]1CN(c2ccc(N3CCN(c4cc(C(OC(C)=O)OC(C)=O)sc4[N+](=O)[O-])CC3)c(F)c2)C(=O)O1` [Compound No. 5, (S)—N-[[3-[3-Fluoro-4-[4-{3-thienyl(2-nitro)-5-acetyloxy}methylacetate]-1-piperazinyl]phenyl]-2-oxo-5-oxazolidinyl]acetamide]?
A: MIC ([1]; S. No. 1, organism cell empty): 0.5 µg/mL (≈ 0.842 µM); MIC ([2]; S. No. 3, S. aureus SG 511): 0.25 µg/mL (≈ 0.421 µM); MIC ([3]; S. No. 5, S. aureus (MRSA) 21299): 0.25 µg/mL (≈ 0.421 µM); MIC ([4]; S. No. 6, S. aureus (MRSA) ST450): 1 µg/mL (≈ 1.68 µM); MIC ([5]; S. No. 7, S. aureus (MRSA 33) Cipro R): 0.25 µg/mL (≈ 0.421 µM); MIC ([6]; S. No. 9, S. aureus (Smith 49951)): 0.25 µg/mL (≈ 0.421 µM); MIC ([7]; S. No. 14, S. epidermidis 358): <0.06 µg/mL; MIC ([8]; S. No. 15, S. haemo ATCC 29970): <0.06 µg/mL; MIC ([9]; S. No. 18, E. faecalis 21777): 1 µg/mL (≈ 1.68 µM); MIC ([10]; S. No. 20, E. faecalis SP 346 (VRE)): 2 µg/mL (≈ 3.37 µM); MIC ([11]; S. No. 22, E. faecium 398(VRE)): 1 µg/mL (≈ 1.68 µM); MIC ([12]; S. No. 27, K. oxytoca 49131): >8 µg/mL; MIC ([13]; S. No. 30, Acinetobacter 9956): >8 µg/mL; MIC ([14]; S. No. 32, S. pneumoniae AB-3): 0.5 µg/mL (≈ 0.842 µM); MIC ([15]; S. No. 34, S. pneumoniae CS1221): 0.5 µg/mL (≈ 0.842 µM); MIC ([16]; S. No. 36, S. pneumoniae AB 31): 0.5 µg/mL (≈ 0.842 µM); MIC ([17]; S. No. 37, S. pneumoniae AB 14): 0.5 µg/mL (≈ 0.842 µM); MIC ([18]; S. No. 40, S. pneumoniae AB 17): 0.5 µg/mL (≈ 0.842 µM); MIC ([19]; S. No. 43, S. pneumoniae AB 23): 0.5 µg/mL (≈ 0.842 µM); MIC ([20]; S. No. 44, S. pneumoniae CS 1687): 0.5 µg/mL (≈ 0.842 µM); MIC ([21]; S. No. 48, S. pneumoniae ATCC 49619): 0.5 µg/mL (≈ 0.842 µM); MIC ([22]; S. No. 51, S. pyogenes 19615): 0.5 µg/mL (≈ 0.842 µM); MIC ([23]; S. No. 52, S. pyogenes 25147): 0.5 µg/mL (≈ 0.842 µM); MIC ([24]; S. No. 56, S. pneumoniae 1256): 0.25 µg/mL (≈ 0.421 µM); MIC ([25]; s. No. 2, H. influenzae ATCC 49247): >16 µg/mL; MIC ([26]; s. No. 3, H. influenzae βIac): >16 µg/mL
